From article PMC7794356, “Streamlined copper defenses make Bordetella pertussis reliant on custom-made operon” (Communications Biology, 2021) come the findings set out here.

In the experiment the target is GorB (BP1729) (Bordetella pertussis, UniProt Q7VXM2). The experiment in a line: NADPH oxidation followed at […] nm. In kind it is biochemical. Conditions: 0.3 mM NADPH, 8 mM GSH; GSSG generated in situ from GSH by H2O2 (0.1-2 mM); 0.1 M sodium/potassium phosphate pH 7.6, 25 °C.
Sequence of GorB (BP1729) (Q7VXM2 entry or part of it): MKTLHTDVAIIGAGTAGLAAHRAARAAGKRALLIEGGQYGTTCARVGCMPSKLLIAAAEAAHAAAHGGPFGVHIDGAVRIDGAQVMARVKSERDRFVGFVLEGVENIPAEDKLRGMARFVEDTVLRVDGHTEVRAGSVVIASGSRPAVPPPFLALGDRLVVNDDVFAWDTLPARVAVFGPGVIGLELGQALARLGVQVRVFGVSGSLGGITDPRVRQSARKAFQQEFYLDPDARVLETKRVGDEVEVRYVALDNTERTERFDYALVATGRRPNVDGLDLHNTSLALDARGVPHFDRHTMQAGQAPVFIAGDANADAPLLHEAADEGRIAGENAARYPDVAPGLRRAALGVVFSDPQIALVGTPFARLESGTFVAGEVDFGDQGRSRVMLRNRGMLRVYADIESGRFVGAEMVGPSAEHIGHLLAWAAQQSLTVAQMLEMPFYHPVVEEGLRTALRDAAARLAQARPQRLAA

For the compound `NC(=O)C1=CN([C@@H]2O[C@H](COP(=O)(O)OP(=O)(O)OC[C@H]3O[C@@H](n4cnc5c(N)ncnc54)[C@H](OP(=O)(O)O)[C@@H]3O)[C@@H](O)[C@H]2O)C=CC1` [NADPH], the “NADPH oxidation followed at 340 nm” value is given as “Oxidation of NADPH by recombinant GorB over time”.
